In ChEMBL document CHEMBL1122154, “Serotonin receptor affinity of cathinone and related analogues” (J Med Chem, 1982):

Biological target: Serotonin (5-HT) receptor
Test: Affinity for 5-hydroxytryptamine receptor was determined using male Dawley rat fundus preparation
Format: protein assay

| SMILES | pA2 |
| --- | --- |
| COc1ccc2c(c1)C(CN)CCO2 (stereo not given) | 5.94 |
| NC1CCc2ccccc2C1=O (stereo not given) | 6.04 |
| COc1ccc(C(=O)C(C)N)cc1OC (racemic) | 6.14 |
| NCC1=CCOc2ccccc21 | 4.94 |
| NC1CCc2ccccc2C1 (stereo not given) | 5.61 |
| NCC(N)c1ccccc1 (racemic) | 4.9 |
| CC(N)C(=O)c1ccc(O)cc1 (racemic) [HYDROXYLATED COMPLETELY DELAKYLATED DIETHYLPROPION] | 5.3 |
| CC(N)C(=O)c1ccccc1 (stereo not given) [DEALKYLATED DIETHYLPROPION] | 5.86 |
| COc1ccc2c(c1)C(CN)=CCO2 | 6.12 |
| NCC1=CCCc2ccccc21 | 5.81 |
